Source: US9302999B2, “Substituted triazoles as herbicides” (E. I. DU PONT DE NEMOURS AND COMPANY, priority 2012, dated 2016)

Legend:
Type in all cases: in vivo
[1] = test system: ducksalad (Heteranthera limosa); experiment: Test B flooded paddy: ducksalad; conditions: Flood; 250 g ai/ha; applied to paddy water at 2-leaf stage; visually evaluated after 13 to 15 days
In short: (§1)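 Response scored visually, 0–100 relative to controls, 13–15 days after the compound was applied into paddy water; plants were at the 2-leaf stage in pots kept flooded to 3 cm.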

[2] = test system: pigweed (Amaranthus retroflexus); experiment: Test A pre-/postemergence: pigweed
In short: (§2)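 Whole-plant greenhouse assay in loam/sand. Preemergence directed soil spray plus simultaneous postemergence spray (one- to two-leaf stage, 2–10 cm). Rated visually ~10 days later, 0 = no effect, 100 = complete control.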

[3] = test system: crabgrass, large (large crabgrass, Digitaria sanguinalis); experiment: Test A pre-/postemergence: crabgrass, large
In short: as §2

[4] = test system: morningglory (Ipomoea spp.); experiment: Test A pre-/postemergence: morningglory
In short: as §2

[5] = test system: velvetleaf (Abutilon theophrasti); experiment: Test A pre-/postemergence: velvetleaf
In short: as §2

corn (Zea mays) = experiment: Test A pre-/postemergence: corn
In short: as §2

[6] = test system: barnyardgrass (Echinochloa crus-galli); experiment: Test A pre-/postemergence: barnyardgrass
In short: as §2

[7] = test system: foxtail, giant (giant foxtail, Setaria faberii); experiment: Test A pre-/postemergence: foxtail, giant
In short: as §2

rice (Oryza sativa) = experiment: Test B flooded paddy: rice; conditions: Flood; 250 g ai/ha; applied to paddy water at 2-leaf stage; visually evaluated after 13 to 15 days
In short: as §1

[8] = test system: wheat (Triticum aestivum); experiment: Test A pre-/postemergence: wheat
In short: as §2

[9] = test system: barnyardgrass (Echinochloa crus-galli); experiment: Test B flooded paddy: barnyardgrass; conditions: Flood; 250 g ai/ha; applied to paddy water at 2-leaf stage; visually evaluated after 13 to 15 days
In short: as §1

[10] = test system: sedge, umbrella (small-flower umbrella sedge Cyperus difformis); experiment: Test B flooded paddy: sedge, umbrella; conditions: Flood; 250 g ai/ha; applied to paddy water at 2-leaf stage; visually evaluated after 13 to 15 days
In short: as §1

[11] = Postemergence, 125 g ai/ha, 0 to 100 scale, 0 is no effect, 100 is complete control
[12] = Postemergence, 500 g ai/ha, visual rating on 0 to 100 scale (0 no effect, 100 complete control), approximately ten days
[13] = Preemergence, 125 g ai/ha, 0 to 100 scale where 0 is no effect and 100 is complete control
[14] = Preemergence, 500 g ai/ha, 0 to 100 scale (0 no effect, 100 complete control)

Fc1ccc(-n2nc(F)c(Cc3ccnc(C(F)(F)F)c3)n2)cc1 [Compound 159]
90: Plant response rating, Pigweed [2, 11] | Plant response rating, Pigweed [2, 14] | Morningglory plant response rating [4, 12] | Foxtail, Giant plant response rating [7, 12] | Plant response rating, Foxtail, Giant [7, 14]
60: Plant response rating, Morningglory [4, 11] | Velvetleaf plant response rating [5, 12] | Plant response rating, Sedge, Umbrella (0 to 100 scale, 0 is no effect, 100 is complete control) [10]
0: Plant response rating, Morningglory [4, 13] | Plant response rating, Morningglory [4, 14] | Plant response rating, Velvetleaf [5, 13] | Plant response rating, Velvetleaf [5, 14] | Plant response rating, Corn (corn (Zea mays); [13]) | Plant response rating, Corn (corn (Zea mays); [14]) | Plant response rating, Wheat [8, 11] | Plant response rating, Wheat [8, 13] | Plant response rating, Wheat [8, 14]
80: Barnyardgrass plant response rating [6, 12] | Plant response rating, Barnyardgrass [6, 14]
70: Plant response rating, Pigweed [2, 13]
100: Pigweed plant response rating [2, 12]
40: Crabgrass, Large plant response rating [3, 12] | Plant response rating, Foxtail, Giant [7, 11] | Plant response rating, Foxtail, Giant [7, 13]
30: Plant response rating, Crabgrass, Large [3, 14] | Corn plant response rating (corn (Zea mays); [12]) | Plant response rating, Rice (0 to 100 scale, 0 is no effect, 100 is complete control) (rice (Oryza sativa)) | Wheat plant response rating [8, 12] | Plant response rating, Barnyardgrass (0 to 100 scale, 0 is no effect, 100 is complete control) [9]
50: Plant response rating, Barnyardgrass [6, 11]
10: Plant response rating, Crabgrass, Large [3, 13] | Plant response rating, Barnyardgrass [6, 13]
20: Plant response rating, Ducksalad (0 to 100 scale, 0 is no effect, 100 is complete control) [1] | Plant response rating, Crabgrass, Large [3, 11] | Plant response rating, Velvetleaf [5, 11] | Plant response rating, Corn (corn (Zea mays); [11])
